From article PMC4965013, “Open Source Drug Discovery with the Malaria Box Compound Collection for Neglected Diseases and Beyond” (PLoS Pathogens, 2016) come the findings set out here.

Several values for one entry are separate records, joined by “and”; a condition that tells them apart may be missing. Identical values can stand only once.

Test [1] relates to bovine Babesia and equine Babesia and Theileria parasites. In words: Babesia and Theileria fluorescence-based assay, all four species. Type of test: cell-based, B. bovis, B. bigemina, T. equi, B. caballi. The settings on record: for IC50: Babesia, range over compounds and species, read-out: IC50s for both bovine Babesia and equine Babesia and Theileria parasites.
Test [2] relates to NCI60 human tumor cell lines. As to the kind of experiment: NCI60 5-dose (dose-response) assay. Type of test: cell-based. An excerpt: Columns IE-KK. NCI: Misra group (data presented first in this paper). NCI60 anti-tumor cell activity. Methods: […] These 60 cell lines, along with others, have been developed at NCI and have been maintained and distributed for research purposes by NCI for over 25 years. The experimental readout provides both inhibition of cell growth and cell kill. The screen was originally designed to prioritize agents for further evaluation. […] This is the same as for the 5-dose assay, described on http://dtp.cancer.gov/branches/btb/ivclsp.html. […] Testing beyond the initial screen: There were 133 compounds that passed threshold to proceed to 5-dose (dose-response) (data are available for the 133 compounds at the DTP public website (dtp.cancer.gov) by searching either the MMV number or NSC number). After examination of the 5-dose data, 10 compounds were selected for repeat testing based generally on potency, differential cell activity or activity on an individual cell lines or cell line panel. A summary of the data for the 10 compounds of interest is in the table below.

Test [3] deals with P. falciparum 3D7 trophozoites. As to the kind of experiment: Metabolomic fingerprint profiling LC-MS. Type of test: cell-based, Plasmodium falciparum. Details: UDP-D-glucose / ADP-D-glucose: unit not given here.
The test system of a further test is P. falciparum. In words: EC50 listed in S2 Table Metabolomics (used to set the concentration tested). The settings on record: Plasmodium falciparum; EC50 used for Factor_XEC50 in metabolomics; read-out: EC50_nM. The test is classed as cell-based.
In the next test the target is PfPMT (Plasmodium falciparum, UniProt Q8IDQ9). In words: PfPMT gene replacement yeast growth. The settings on record: 100µM.
[4] abbreviates: mean over cell lines of one experiment, listed as 766470/2.
The mark [5] stands for this setting: metabolite level change after treatment.

Chain of PfPMT (Q8IDQ9 whole entry): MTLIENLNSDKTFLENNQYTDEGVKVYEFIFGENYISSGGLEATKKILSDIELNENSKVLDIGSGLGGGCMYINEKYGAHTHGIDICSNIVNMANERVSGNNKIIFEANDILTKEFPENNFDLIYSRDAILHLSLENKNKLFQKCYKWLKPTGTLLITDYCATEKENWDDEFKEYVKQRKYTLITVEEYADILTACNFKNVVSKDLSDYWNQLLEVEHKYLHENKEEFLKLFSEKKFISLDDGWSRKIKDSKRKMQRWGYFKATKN

On to `Cc1cc(N2CCN(C3CCCC3)CC2)n2c(nc3ccccc32)c1C#N` [MMV006706], for which, in test [1], the “anti-Babesia and anti-Theileria hits, IC50 in words” value was “nanomolar IC50s”; the “mean selectivity indices (SI)” value is on record as “greater than 230”; the IC50 lay in the range of 43 to 750 nM.

Take `CC(C)CCNCC(O)Cn1c2ccccc2c2ccccc21` (centres unmarked) [MMV006787]: in test [1], the “anti-Babesia and anti-Theileria hits, IC50 in words” value is given as “nanomolar IC50s”.

As to `CCOc1ccc(CN2CCN(CC(O)COc3ccc(OCC(O)CN4CCN(Cc5ccc(OCC)cc5)CC4)cc3)CC2)cc1` (centres unmarked) [MMV007092], the “anti-Babesia and anti-Theileria hits, IC50 in words” value in test [1] was “nanomolar IC50s”.

As to `COc1ccc(-c2nc3cc(Cc4ccc5[nH]c(-c6ccc(OC)cc6)nc5c4)ccc3[nH]2)cc1` [MMV007384], the “Notes (NCI60 5-dose activity pattern)” value in test [2] was “Colon, differential, potent”. For the same compound, the “MGLI50 = Mean Growth Log I50” value in test [2] (5-dose, mean over NCI60 panel) is listed as -7.34. Also, in test [2] (setting [4]), the “_MID Log10GI50” value is -7.42 Molar and -7.34 Molar; the “_MID Log10LC50” value is -5.38 Molar and -5.32 Molar; the “_MID Log10TGI” value was -6.22 Molar and -6.17 Molar. Further, the Acetyllysine in test [3] (S2 Table Metabolomics, metabolite Acetyllysine) is reported as -1.262. Moreover, the N-acetyl-L-ornithine in test [3] (S2 Table Metabolomics, metabolite N-acetyl-L-ornithine) is given as -1.162. Moreover, the N-carbamoyl-L-aspartate in test [3] (S2 Table Metabolomics, metabolite N-carbamoyl-L-aspartate) was -0.09766. In addition, the NADPH in test [3] (S2 Table Metabolomics, metabolite NADPH) was -0.9181. For the same compound, the dAMP in test [3] (S2 Table Metabolomics, metabolite dAMP) is recorded as 0.6855. In addition, the dCMP in test [3] (S2 Table Metabolomics, metabolite dCMP) was determined as 0.07883. Besides, the dTDP in test [3] (S2 Table Metabolomics, metabolite dTDP) worked out at 0.07329. Besides, the dTMP in test [3] (S2 Table Metabolomics, metabolite dTMP) is 0.1259. Further, the dTTP in test [3] (S2 Table Metabolomics, metabolite dTTP) is -0.4561. In addition, the dihydroorotate in test [3] (S2 Table Metabolomics, metabolite dihydroorotate) is 0.3461. Moreover, the orotate in test [3] (S2 Table Metabolomics, metabolite orotate) turned out to be 0.3571. The DLH in test [3] (S2 Table Metabolomics, peptide DLH) is -1.971. The compound also had a DLS/SDL/SID in test [3] (S2 Table Metabolomics, peptide DLS/SDL/SID) of -1.761. Besides, in test [3] (S2 Table Metabolomics, peptide PD), the PD was -1.296. The same compound showed a PEE in test [3] (S2 Table Metabolomics, peptide PEE) of -1.3661. The compound further gave a PVNF in test [3] (S2 Table Metabolomics, peptide PVNF) of -1.589. In addition, the 3-phosphoglycerate in test [3] (metabolite 3-phosphoglycerate, S2 Table Metabolomics) is listed as -0.215. Besides, the ADP-D-glucose in test [3] (metabolite ADP-D-glucose, S2 Table Metabolomics) was -0.07535. Moreover, the ATP in test [3] (metabolite ATP, S2 Table Metabolomics) is listed as -0.4674. In addition, the CDP in test [3] (metabolite CDP, S2 Table Metabolomics, change in metabolite level after compound treatment) is reported as -0.349. In test [3] (metabolite D-sedoheptulose-1/7-phosphate, S2 Table Metabolomics, change in metabolite level after compound treatment), the D-sedoheptulose-1/7-phosphate is -0.5757. In addition, the FAD in test [3] (metabolite FAD, S2 Table Metabolomics) was -0.3245. Further, the GMP in test [3] (metabolite GMP, S2 Table Metabolomics, change in metabolite level after compound treatment) is given as -0.4418. In addition, the “NAD+” value in test [3] (metabolite NAD+, S2 Table Metabolomics) is -0.0839. Moreover, the “NADP+” value in test [3] (metabolite NADP+, S2 Table Metabolomics) is reported as -0.1415. The “Octoluse Bisphosphate” value in test [3] (metabolite Octoluse Bisphosphate, S2 Table Metabolomics, change in metabolite level after compound treatment) was -0.7079. In addition, the Pyroglutamic acid in test [3] (metabolite Pyroglutamic acid, S2 Table Metabolomics) is reported as 1.1726. For the same compound, the UDP-D-glucose in test [3] (metabolite UDP-D-glucose, S2 Table Metabolomics) was -0.1169. Besides, the UDP-D-glucuronate in test [3] (metabolite UDP-D-glucuronate, S2 Table Metabolomics) is on record as -0.3283. In addition, in test [3] (metabolite UDP-N-acetyl-glucosamine, S2 Table Metabolomics), the UDP-N-acetyl-glucosamine is -0.1799. Also, the UDP in test [3] (metabolite UDP, S2 Table Metabolomics, change in metabolite level after compound treatment) is -0.2172. Besides, the UMP in test [3] (metabolite UMP, S2 Table Metabolomics, change in metabolite level after compound treatment) was -0.3886. In test [3] (metabolite UTP, S2 Table Metabolomics, change in metabolite level after compound treatment), the UTP is given as -0.61. The a-ketoglutarate in test [3] (metabolite a-ketoglutarate, S2 Table Metabolomics) was 0.7257. Besides, the citrate/isocitrate in test [3] (metabolite citrate/isocitrate, S2 Table Metabolomics, change in metabolite level after compound treatment) was found to be 1.281. In addition, the cytidine in test [3] (metabolite cytidine, S2 Table Metabolomics) came out at 0.03237. In test [3] (metabolite dATP, S2 Table Metabolomics), the dATP is listed as -0.2668. In addition, the dGMP/AMP in test [3] (metabolite dGMP/AMP, S2 Table Metabolomics, change in metabolite level after compound treatment) is listed as 0.1319. Further, the fumarate in test [3] (metabolite fumarate, S2 Table Metabolomics, change in metabolite level after compound treatment) is recorded as 0.03505. Besides, in test [3] (metabolite glucose-1/6-phosphate, S2 Table Metabolomics, change in metabolite level after compound treatment), the glucose-1/6-phosphate is 0.02257. In test [3] (metabolite glycerate, S2 Table Metabolomics, change in metabolite level after compound treatment), the glycerate came to 0.3902. In addition, the guanine in test [3] (metabolite guanine, S2 Table Metabolomics, change in metabolite level after compound treatment) worked out at 0.5342. For the same compound, in test [3] (metabolite guanosine, S2 Table Metabolomics, change in metabolite level after compound treatment), the guanosine came out at 0.3398. Moreover, the hypoxanthine in test [3] (metabolite hypoxanthine, S2 Table Metabolomics) was determined as 1.128. Further, the indole in test [3] (metabolite indole, S2 Table Metabolomics) is listed as 0.6274. Besides, in test [3] (metabolite inosine, S2 Table Metabolomics, change in metabolite level after compound treatment), the inosine turned out to be 0.7464. In test [3] (setting [5]), the 2_3-Diphosphoglyceric acid is on record as -0.7853, the 4-phosphopantothenate stood at 0.02171, the 6-phospho-D-gluconate is listed as -0.4966 and the FMN is given as -0.1132. Further, in test [3] (setting [5]), the IMP is listed as -0.008592, the Pyrophosphate is -0.8081, the Sedoheptoluse bisphosphate was -0.4298 and the cyclic-AMP is given as -0.3368. In test [3] (setting [5]), the glutathione disulfide is listed as -0.6284, the lactate is listed as 0.4073 and the myo-inositol is -0.09775. The nicotinate in test [3] (metabolite nicotinate, S2 Table Metabolomics) is 1.038. Also, in test [3] (metabolite ornithine, S2 Table Metabolomics), the ornithine was 0.535. The phosphoenolpyruvate in test [3] (metabolite phosphoenolpyruvate, S2 Table Metabolomics) was 0.008692. In test [3] (metabolite pyruvate, S2 Table Metabolomics, change in metabolite level after compound treatment), the pyruvate was found to be 0.9693. For the same compound, in test [3] (metabolite ribose-phosphate, S2 Table Metabolomics), the ribose-phosphate was -0.5692. In addition, in test [3] (metabolite sarcosine/alanine, S2 Table Metabolomics, change in metabolite level after compound treatment), the sarcosine/alanine is listed as -0.2789. In test [3] (metabolite sn-glycerol-3-phosphate, S2 Table Metabolomics), the sn-glycerol-3-phosphate is on record as -0.4175. The succinate/methylmalonic acid in test [3] (metabolite succinate/methylmalonic acid, S2 Table Metabolomics, change in metabolite level after compound treatment) was -0.1567. The uridine in test [3] (metabolite uridine, S2 Table Metabolomics, change in metabolite level after compound treatment) turned out to be 0.8329. The xanthosine in test [3] (metabolite xanthosine, S2 Table Metabolomics, change in metabolite level after compound treatment) is given as 0.2641. Further, the EC50 with P. falciparum turned out to be 176 nM. On PfPMT, the “candidate inhibitors of PfPMT activity (yeast functional assay)” value is “candidate inhibitors of PfPMT activity”.

In the case of `CN(C)c1ccc(N=Cc2ccc(N3CCOCC3)cc2)cc1` [MMV073843], in test [1], the “anti-Babesia and anti-Theileria hits, IC50 in words” value is “nanomolar IC50s”; the “mean selectivity indices (SI)” value is on record as “greater than 230”; the IC50 was in the range of 43 to 750 nM.

Consider `CC(C)(C)CC(C)(C)NCC(O)COc1ccc(Cl)cc1Cl` (centres unmarked) [MMV396794], for which, in test [1], the “anti-Babesia and anti-Theileria hits, IC50 in words” value is given as “nanomolar IC50s”.

In the case of `Cn1c(=O)n(C)c2cc(CNCCNc3ccnc4cc(Cl)ccc34)ccc21` [MMV665875], in test [1], the “anti-Babesia and anti-Theileria hits, IC50 in words” value is listed as “nanomolar IC50s”; the “mean selectivity indices (SI)” value is listed as “greater than 230”; the IC50 lay in the range of 43 to 750 nM.

`CCCC(c1nnnn1C1CCCCC1)N1CCN(C(=O)c2ccco2)CC1` (centres unmarked) [MMV666093]: in test [1], the “anti-Babesia and anti-Theileria hits, IC50 in words” value was “nanomolar IC50s”; the “mean selectivity indices (SI)” value is “greater than 230”; the IC50 was 43 to 750 nM.
